Some results are limits rather than exact numbers.

What all share (experiment): Minimum inhibition concentration, NCCLS Approved Standard M7-A4 dilution test
Holding throughout (format): cell-based

In test [1] the test system is Corynebacterium glutamicum ATCC13032. Particulars: strain ATCC13032 (sensitive control), MÜLLER-HINTON bouillon. From the text: (§1) In order to identify antibiotic resistance genes on new plasmids, the strain to be investigated, in the present case Corynebacterium glutamicum LP-6, and a sensitive control strain, in the present case Corynebacterium glutamicum ATCC13032, are initially tested for resistance or sensitivity to various antibiotics and concentrations of antibiotics. […] Using the method of “Approved Standard M7-A4”, it is possible to determine inhibition concentrations and thus to ascertain the resistance of the investigated strain of bacteria.
(§2) In order to identify antibiotic resistance regions on the novel plasmids pTET3 or pCRY4, the resistant test strain Corynebacterium glutamicum LP-6 and the sensitive control strain Corynebacterium glutamicum ATCC13032 were initially cultured in the presence and absence of various antibiotics and antibiotic concentrations in accordance with the experimental method of the National Committee of Clinical Laboratory Standards (National Committee of Clinical Laboratory Standards, Methods for dilution antimicrobial susceptibility tests for bacteria that grow aerobically; Approved Standard, M7-A4 (1997)). The antibiotics required for this test, inter alia the antibiotics tetracycline, spectinomycin, streptomycin and sulfamethoxazole, were obtained from Sigma-Aldrich Chemie GmbH (Deisenhofen, Germany) and used in the concentrations stated in “Approved Standard M7-A4”. The nutrient medium required for this test, “MÖLLER-HINTON bouillon” was obtained from Merck KGaA (Darmstadt, Germany) and used in accordance with the manufacturer's instructions. Using the method of “Approved Standard M7-A4”, it is possible to determine inhibition concentrations (Table 1) and to identify the resistance of the bacterial strain Corynebacterium glutamicum LP-6 to the antibiotics tetracycline, spectinomycin, streptomycin and sulfamethoxazole. Plasmid DNA isolated from Corynebacterium glutamicum LP-6 using an alkaline lysis method (“NucleoBond Nucleic Acid Purification Kits and Cartridges User Manual (PT3167-1)”, Clonetech Laboratories GmbH, Heidelberg, Germany, 1997) was then transferred with electrical assistance into Corynebacterium glutamicum ATCC13032. Selection was performed directly for the presence of the identified tetracycline resistance in the primary selection on LB agar containing 5 μg/ml of tetracycline. […] The transformed strain was named Corynebacterium glutamicum ATCC13032 [pTET3].

Test [2] concerns Corynebacterium glutamicum LP-6. Particulars: strain LP-6 (resistant test strain).
Source text: as §1, §2

Test [3] has as its system Corynebacterium glutamicum ATCC13032 [pTET3]. Particulars: strain ATCC13032 [pTET3]. An excerpt:
In order to identify antibiotic resistance genes on new plasmids, the strain to be investigated, in the present case Corynebacterium glutamicum LP-6, and a sensitive control strain, in the present case Corynebacterium glutamicum ATCC13032, are initially tested for resistance or sensitivity to various antibiotics and concentrations of antibiotics. The National Committee of Clinical Laboratory Standards (NCCLS) experimental procedure is preferably used for this purpose (“Methods for dilution antimicrobial susceptibility tests for bacteria that grow aerobically”, fourth edition; Approved Standard, M7-A4, NCCLS 17(2), (1997)). Using the method of “Approved Standard M7-A4”, it is possible to determine inhibition concentrations and thus to ascertain the resistance of the investigated strain of bacteria.
The plasmid to be investigated, in the present case pTET3, is then isolated from strain LP-6 as described above and used to transform a suitable control or indicator strain, in the present case strain ATCC13032. Methods for transforming coryneform bacteria are described, for example, in Thierbach et al. ([…] 29, 356-362 (1988)), in Liebl et al. (FEMS Microbiology Letters 65, 299-304 (1989)) or in Dunican et al. (Bio/Technology 7, 1067-1070 (1989)). Selection is performed on conventional, complex nutrient media, such as for example brain-heart bouillon or Luria-Bertani medium, which are supplemented with the appropriate antibiotics. The antibiotic and the concentration thereof for this selection process is determined on the basis of the above-mentioned “Approved Standard, M7-A4”. In this manner, strain ATCC13032[pTET3], is obtained by selection for tetracycline resistance. The resistance/sensitivity of strain ATCC13032[pTET3) and of the control strain ATCC13032 is then investigated using the above-mentioned method, yielding the result that strain ATCC13032[pTET3] is resistant to the antibiotics tetracycline, streptomycin, spectinomycin and sulfamethoxazole.
In order to identify antibiotic resistance regions on the novel plasmids pTET3 or pCRY4, the resistant test strain Corynebacterium glutamicum LP-6 and the sensitive control strain Corynebacterium glutamicum ATCC13032 were initially cultured in the presence and absence of various antibiotics and antibiotic concentrations in accordance with the experimental method of the National Committee of Clinical Laboratory Standards (National Committee of Clinical Laboratory Standards, Methods for dilution antimicrobial susceptibility tests for bacteria that grow aerobically; Approved Standard, M7-A4 (1997)). […]

As to `CN[C@@H]1[C@H](O)[C@H](NC)[C@H]2O[C@@]3(O)C(=O)C[C@@H](C)O[C@H]3O[C@@H]2[C@H]1O` [Spectinomycin], the Minimum inhibition concentration entry is on record as “≦50 μg of antibiotic per ml” in test [1], >2000 μg of antibiotic per ml in test [2] and >2000 μg of antibiotic per ml in test [3].
Consider `[H]/N=C(/N)N[C@H]1[C@H](O)[C@@H](O)[C@H](O[C@@H]2O[C@@H](C)[C@](O)(C=O)[C@H]2O[C@@H]2O[C@@H](CO)[C@H](O)[C@@H](O)[C@@H]2NC)[C@@H](N/C(N)=N\[H])[C@@H]1O` [Streptotmycin], for which the Minimum inhibition concentration result is on record as “≦0.5 μg of antibiotic per ml” in test [1], “≦100 μg of antibiotic per ml” in test [2] and “≦100 μg of antibiotic per ml” in test [3].
Regarding `Cc1cc(NS(=O)(=O)c2ccc(N)cc2)no1` [Sulfamethoxazole], the Minimum inhibition concentration entry in test [1] was “≦150 μg of antibiotic per ml”; in test [2] it was “≦300 μg of antibiotic per ml”; in test [3], “≦300 μg of antibiotic per ml”.
Regarding `CN(C)[C@@H]1C(O)=C(C(N)=O)C(=O)[C@@]2(O)C(O)=C3C(=O)c4c(O)cccc4[C@@](C)(O)[C@H]3C[C@@H]12` [Tetracycline], the Minimum inhibition concentration result in test [1] is listed as “≦0.75 μg of antibiotic per ml”; in test [2], “≦12 μg of antibiotic per ml”; in test [3], “≦12 μg of antibiotic per ml”.

Source of the values: patent US6777229B1, “Plasmids from Corynebacterium glutamicum and use thereof” (Degussa AG, priority 1999, dated 2004).
